No end group written: not given here.
Assays:
[1] = molecular target: T1, channels formed by the 42-residue AbP1-42 (Homo sapiens, UniProt P05067); assay: Liposomes reconstituted with AbP1-42 channels, channel block; format: biochemical
T1 construct: the channels formed by the 42-residue AbP1-42
Description: (§1) In certain embodiments binding of test agents can be detected by detecting alterations (e.g., decrease) of ion (e.g., Ca^2+) uptake by a cell, oocytes, or liposome in the presence of the test agent(s)-uptake in to the liposomes. This can readily be detected using for example a radio-isotope (e.g., 45Ca^2+) or a calcium sensitive dye (e.g., arsenazo III (AIII), Fura-2, Fluo-3, Fluo-4, Calcium green, etc.).
(§2) Using liposomes reconstituted with AbP channels in the membrane, one can screen for compounds that block AbP channels.

[2] = test system: AbP ion channels; assay: Ca2+ influx through AbP ion channels incorporated into unilaminar liposomes; format: biochemical, human
Description: Consistent with these discoveries, we have shown that AbP ion channels mediate Ca^2+ influx when incorporated into unilaminar liposomes, and the Ca^2+ influx was blocked by Zn^2+ and an anti-AbP antibody.

[3] = test system: AbP ion channels; assay: AbP-induced toxicity in cultured cells; format: cell-based; settings: blocking Ca2+ influx through AbP ion channels
[4] = molecular target: T2, channels formed by the 40 residue AbP1-40 (Homo sapiens, UniProt P05067); assay: 45Ca2+ uptake into liposomes reconstituted with AbP1-40 channels; format: biochemical
T2 construct: the channels formed by the 40 residue AbP1-40
T2 sequence (P05067 672-711 limits assumed): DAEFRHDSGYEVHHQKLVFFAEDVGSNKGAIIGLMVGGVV
Description: as §1, §2

[5] = IV curve conductance across lipid bilayer suspended over silicon chip nanopore; settings: 0.2 mg/ml, 135 mM KCl, bilayer only 0.025 nS
Protocol: In order to study the sealing effect of the bilayer over the nanopores in the chip, lipid vesicles were deposited over to chips. After 30 minutes for a bilayer to form from vesicular fusion, the excess unadsorbed lipids and vesicles were rinsed away from the surface. Bulk electrical conductance across the supported nanopore chip and the overlying adsorbed lipid bilayer was measured using a drop of 135 mM KCl solution on top of the chip in which the AFM tip holder assembly was submerged and 135 mM KCl under the nitride membrane. The IV curve measured was near flat and indicates a conductance across the bilayer of 0.025 nS. To check for the possibility of using the nanopore chip to measure ion channel conductance, Gramicidin (a known ion channel forming peptide) was added to the solution at a concentration of 0.2 mg/ml. The effect of Gramicidin on conductance is shown in FIG. 18, while applying a 1V bias to the bottom electrode under the silicon nitride membrane.
For all samples, nano pore membranes were mounted on plastic liquid cells to exchange fluid above or below the membrane. IV curves were obtained in 135 mM KCl solution. Current was measured using the conductive AFM setup with the cantilevered tip holder as an electrode on the top and a reference electrode under the pore-chip (FIG. 20). In absence of an insulating coat, when buffer was present on both sides of the chip, current is measured through the complete tip holder clip. To image current only through the AFM tip apex, conductance was measured with 135 mM KCl solution only under the pore chip and a flow of humid air was maintained over the top surface. This set up also ensured that, by allowing only a local water meniscus between tip and the sample, only the local conductance through each pore was measured.
AFM was also used to image pores after deposition of lipid vesicles (DOPC) prepared by previously described method (Lin et al. (1999) Biochemistry, 38: 11189-11196). Briefly, vesicles were formed by drying 1 mg of DOPC lipid in a glass tube, kept in a desiccator overnight, and rehydrated in buffer with occasional sonication. For vesicle deposition a droplet (50 micro liter, 1 mg/ml) of vesicles was placed on the pore chip, allowed to adsorb for 30 minutes, and rinsed with buffer. After bilayer deposition and before IV measurements, ionic strength was brought back to 135 mM KCl both on top as well as below the pore chip to keep the bilayer hydrated properly, and current was measured through the tip holder. Once a proper seal was achieved by the bilayer, Gramicidin, an ion channel forming peptide (dissolved in milliQ water with 135 mM KCl), was added to the buffer solution, and the current was measured as a function of time while gramicidin interacted with the bilayer.

[6] = Single-channel current recording in planar phospholipid bilayer membranes; settings: voltage clamp, peptide added to one side, pH 7.4
Protocol: Planar phospholipid bilayer membranes were formed as described by Mirzabekov et al. (1999) Meth. Enzymol. 294: 61-74. A bubble of lipid dissolved in heptane was placed at the end of a small (100-300 μm) Teflon tube. Silver/silver chloride electrodes connected the aqueous components bounding the membrane to a voltage clamp. Ion-channel currents through the membrane were recorded by an Axopatch amplifier (Axon Instruments, Sunnyvale, Calif.). Data were filtered at 1 kHz and stored on VHS tape. Membrane capacitance and resistance were monitored continuously to ensure the formation and stability of reproducible membranes and the proper membrane thickness. […] Peptide samples were introduced by perfusing the aqueous solution bounding one side of the membrane.

T1 sequence (P05067 672-713 limits assumed): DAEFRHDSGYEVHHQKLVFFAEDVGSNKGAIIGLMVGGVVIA

NC(CO)(CO)CO [Tris]
block of AbP1-42 channels [1]: blocked

[Zn+2] [Zn^2+]
block of AbP1-42 channels [1]: blocked | block of Ca2+ influx mediated by AbP ion channels [2]: blocked | effect on AbP-induced toxicity [3]: inhibited AbP-induced toxicity | block of AbP1-40 channels and inhibition of 45Ca2+ uptake into the liposomes [4]: blocks the channels

Gramicidin
conductance after addition of Gramicidin ([5]; 10 seconds after addition): 0.25 nS | conductance after addition of Gramicidin ([5]; 2 minutes after addition): 0.5 nS | conductance after addition of Gramicidin ([5]; 4 minutes after addition): 1 nS | conductance after addition of Gramicidin ([5]; 4 minutes after addition, listed as gramicidin): roughly 1 nS

NAC: NAC (α-synuclein 60-95)
induction of single-channel ion currents / conductances [6]: Current jumps corresponding to the opening or closing of individual ion channels can be observed

amyloid-β(1-40) [Aβ(1-40)]
induction of single-channel ion currents / conductances [6]: Current jumps corresponding to the opening or closing of individual ion channels can be observed

islet amyloid polypeptide (KCNTATCATQRLANFLVHSSNNFGAILSSTNVGSNTY; not fully specified (C-terminus, bridges); cysteine pairing not given here; UniProt P10997 34-70, looked up) [Amylin, amyloid peptide synthesized by N-t-butyloxycarbonyl chemistry]
induction of single-channel ion currents / conductances [6]: Current jumps corresponding to the opening or closing of individual ion channels can be observed

— patent US20070238184A1, “Amyloid beta protein channel structure and uses thereof in identifying potential drug molecules for neurodegenerative diseases” (The Regents of the University of California, priority 2005, published 2007)
